From publication PMC6792352, “Limited Chemical Structural Diversity Found to Modulate Thyroid Hormone Receptor in the Tox21 Chemical Library” (Environmental Health Perspectives, 2019) come the findings set out here.

Structures are written as SMILES. Where a name gives a salt, the structure may show the parent alone. Bounds are passed on as bounds.

One data set can be described thus: in vitro. The conditions noted are these: rat, gh3-tre-luc cells, AC50 (uM) modified / 1000.
Take `C/C(=N\O)c1ccc(OCC(=O)N2CCCCC2)cc1` [Pifoxime]: the CC50 (usually the concentration that lowers cell viability or growth by half) at 24 h was over 50 µM.

As for `CC[C@@H]1C(=O)OC[C@@H]1Cc1cncn1C` [Pilocarpine], the CC50 at 24 h was over 50 µM.

With `Cc1cccc(C)c1NC(=O)CC12CCCN1CCC2` [Pilsicainide], the CC50 at 24 h was over 50 µM. Same read-out and setting: in the case of `CC[C@@H]1/C=C(\C)C[C@H](C)C[C@H](OC)[C@H]2O[C@@](O)(C(=O)C(=O)N3CCCC[C@H]3C(=O)O[C@H](/C(C)=C/[C@@H]3CC[C@H](Cl)[C@H](OC)C3)[C@H](C)[C@@H](O)CC1=O)[C@H](C)C[C@@H]2OC` [Pimecrolimus] it was over 50 µM; in that of `CN1CCC(=C2c3ccccc3Sc3ccccc32)CC1` [Pimethixene maleate], 4.52 µM. On the same count and under the same terms, in the case of `COc1ccc(-c2nc3ccc(C4=NNC(=O)CC4C)cc3[nH]2)cc1` (centres unmarked) [Pimobendan hydrochloride] it was 36.4 µM; in that of `CC(N/C(=N\C#N)Nc1ccncc1)C(C)(C)C` (centres unmarked) [Pinacidil monohydrate], over 50 µM; in that of `CC1CC[C@@H]2C[C@H]1C2(C)C` (some centres unmarked) [Pinane], over 90 µM. Compound `Cc1cccc(C)c1NC(=O)CN1CCCCCC1` [Pincainide] came in with a CC50 at 24 h of over 50 µM.

For `CC(C)NCC(O)COc1cccc2[nH]ccc12` (centres unmarked) [Pindolol], the CC50 at 24 h was over 50 µM. For the compound `COc1cc2c(cc1OC)C(C(C(=O)N(CCc1ccc(OC)c(OC)c1OC)CCc1ccc(OC)c(OC)c1OC)c1ccccc1)=NCC2` (centres unmarked) [Pinokalant hydrochloride], the CC50 at 24 h amounted to 21.9 µM. `CCc1ccc(CCOc2ccc(CC3SC(=O)NC3=O)cc2)nc1` (centres unmarked) [Pioglitazone hydrochloride]: the CC50 at 24 h is over 90 µM. On the same count and under the same terms, in the case of `NC(=O)C1(N2CCCCC2)CCN(CCCC(=O)c2ccc(F)cc2)CC1` [Pipamperone dihydrochloride] it was over 50 µM; in that of `CC(=O)O[C@H]1C[C@@H]2CC[C@@H]3[C@H](CC[C@@]4(C)[C@H]3C[C@H](N3CC[N+](C)(C)CC3)[C@@H]4OC(C)=O)[C@@]2(C)C[C@@H]1N1CC[N+](C)(C)CC1` [Pipecuronium bromide], over 50 µM; in that of `CCn1cc(C(=O)O)c(=O)c2cnc(N3CCNCC3)nc21` [Pipemidic acid], over 20 µM.

The compound `CC[N+]1(C)CCCC(OC(=O)C(O)(c2ccccc2)c2ccccc2)C1` (centres unmarked) [Pipenzolate bromide] gave a CC50 at 24 h of over 50 µM. Still for that read-out and setting: with `CC(=O)c1ccc2c(c1)N(CCCN1CCC(CCO)CC1)c1ccccc1S2` [Piperacetazine] the figure was 10.7 µM.

`CCN1CCN(C(=O)N[C@@H](C(=O)N[C@@H]2C(=O)N3[C@@H]2SC(C)(C)[C@@H]3C(=O)O)c2ccccc2)C(=O)C1=O` [Piperacillin sodium salt] came in with a CC50 at 24 h of over 50 µM.

As for `C1CNCCN1` [Piperazine], the CC50 at 24 h is over 50 µM. The same measure, in the same setting: with `C1CCNCC1` [Piperidine] the figure was over 90 µM; with `CCN1CCCC(OC(=O)C(c2ccccc2)c2ccccc2)C1` (centres unmarked) [Piperidolate hydrochloride], 11.6 µM; with `O=C(OCCN1CCCCC1)C(O)(c1ccccc1)c1ccccc1` [Piperilate hydrochloride], over 50 µM. `O=C(/C=C/C=C/c1ccc2c(c1)OCO2)N1CCCCC1` [Piperine] came in with a CC50 at 24 h of over 90 µM. As for `CC1CCCCN1CCCOC(=O)c1ccccc1` (centres unmarked) [Piperocaine hydrochloride], the CC50 at 24 h was over 50 µM. The same measure, in the same setting: with `CC(=O)OCc1ccc2c(c1)OCO2` [Piperonyl acetate] the figure was over 90 µM; with `c1ccc2c(c1)OCC(CN1CCCCC1)O2` (centres unmarked) [Piperoxan], over 50 µM; with `O=C(CCBr)N1CCN(C(=O)CCBr)CC1` [Pipobroman], over 50 µM. Still for that read-out and setting: with `CN1CCN(c2cc3c(nn2)Oc2ccccc2N3C)CC1` [Pipofezine] the figure was over 50 µM; with `CCCCCCCCCCCCCCCC(=O)OCCC1CCN(CCCN2c3ccccc3Sc3ccc(S(=O)(=O)N(C)C)cc32)CC1` [Pipothiazine palmitate], over 50 µM; with `COc1cccc2c1C(=O)c1c(O)c3c(c(O)c1C2=O)C[C@@](O)(C(=O)CO)C[C@@H]3O[C@H]1C[C@H](N)[C@H](O[C@@H]2CCCCO2)[C@H](C)O1` [Pirarubicin], 1.64 µM. On to `CC(C)(C)NCC(O)c1ccc(O)c(CO)n1` (centres unmarked) [Pirbuterol hydrochloride], for which the CC50 at 24 h is over 50 µM. As to `O=C(O)c1cc(O)c2c3nc4ccccc4oc-3cc(=O)c2n1` [Pirenoxine sodium], the CC50 at 24 h is over 50 µM. Still for that read-out and setting: in the case of `Cc1nc2ccccn2c(=O)c1CCN1CCC(C(=O)c2ccc(F)cc2)CC1` [Pirenperone] it was over 50 µM; in that of `CN1CCN(CC(=O)N2c3ccccc3C(=O)Nc3cccnc32)CC1` [Pirenzepine], over 50 µM; in that of `NS(=O)(=O)c1cc(C(=O)O)cc(N2CCCC2)c1Oc1ccccc1` [Piretanide], over 20 µM. The same measure, in the same setting: in the case of `Cc1ccc(=O)n(-c2ccccc2)c1` [Pirfenidone] it was over 50 µM. Compound `c1cnc(N2CCN(Cc3ccc4c(c3)OCO4)CC2)nc1` [Piribedil] showed a CC50 at 24 h of over 50 µM. On the same count and under the same terms, in the case of `Cc1cccc(Nc2cc(Cl)nc(SCC(=O)O)n2)c1C` [Pirinixic acid] it was over 90 µM; in that of `Cc1ccc2c(c1)c1c3n2CCNC3CCC1` (centres unmarked) [Pirlindole mesylate], 9.12 µM. The compound `Cc1cc(CC(C)CC(C)(C)C)n(O)c(=O)c1` (centres unmarked) [Piroctone olamine] returned a CC50 at 24 h of 33 µM.

In the case of `CCn1cc(C(=O)O)c(=O)c2cnc(N3CCCC3)nc21` [Piromidic acid], the CC50 at 24 h is over 20 µM.

The compound `O=C(O)C[C@H](O)C[C@H](O)/C=C/c1c(C2CC2)nc2ccccc2c1-c1ccc(F)cc1` [Pitavastatin calcium] had a half-maximal cytotoxic concentration (CC50) at 24 h of over 50 µM. On the same count and under the same terms, in the case of `COC(=O)c1ccccc1C(=O)c1ccc(OCCN2CCCCC2)cc1` [Pitofenone hydrochloride] it was 42.7 µM; in that of `CC(C)(C)C(=O)NCCCC(=O)O` [Pivagabine], over 50 µM; in that of `CC(C)(C)C(=O)OCOC(=O)[C@@H]1N2C(=O)[C@@H](NC(=O)[C@H](N)c3ccccc3)[C@H]2SC1(C)C` [Pivampicillin], over 20 µM. Take `CC(C)(C)C(=O)OCOC(=O)[C@@H]1N2C(=O)[C@@H](N=CN3CCCCCC3)[C@H]2SC1(C)C` [Pivmecillinam hydrochloride]: the CC50 at 24 h was over 20 µM. For the compound `CC(C)(C)C(=O)OCOC(=O)[C@@H]1N2C(=O)C[C@H]2S(=O)(=O)C1(C)C` [Pivoxil Sulbactam], the CC50 at 24 h was over 50 µM. Still for that read-out and setting: in the case of `CN1CCC(=C2c3ccccc3CCc3sccc32)CC1` [Pizotyline] it was 10.6 µM. The compound `C=C[C@]1(C)C[C@@H](OC(=O)CO)[C@]2(C)[C@H](C)CC[C@]3(CCC(=O)[C@H]32)[C@@H](C)[C@@H]1O` [Pleuromutilin] displayed a CC50 at 24 h of over 50 µM. Same read-out and setting: in the case of `CO[C@H](C(=O)[C@@H](O)[C@@H](C)O)[C@@H]1Cc2cc3cc(O[C@H]4C[C@@H](O[C@H]5C[C@@H](O)[C@H](O)[C@@H](C)O5)[C@H](O)[C@@H](C)O4)c(C)c(O)c3c(O)c2C(=O)[C@H]1O[C@H]1C[C@@H](O[C@H]2C[C@@H](O[C@H]3C[C@](C)(O)[C@H](O)[C@@H](C)O3)[C@@H](O)[C@@H](C)O2)[C@H](O)[C@@H](C)O1` [Plicamycin] it was 0.413 µM; in that of `CC(COCCO)OCCO` (centres unmarked) [Pluronic F-127], over 80 µM; in that of `Brc1cc(-c2ccc(Br)c(Br)c2Br)cc(Br)c1Br` [Polybrominated biphenyls (PBB)], over 50 µM. Turning to `CCCCCCCC/C=C\CCCCCCCC(=O)OCCOC(=O)CCCCCCC/C=C\CCCCCCCC` [Polyethylene glycol dioleate], the 50% cytotoxic concentration (CC50) at 24 h is over 100 µM. The same measure, in the same setting: with `CCCCCCCCCCCCCCCCCCOCCO` [Polyethylene glycol stearyl ether] the figure was over 20 µM; with `CCCCCCCCCCCCOCCOCCOCCOCCOCCOCCOCCOCCOCCO` [Polyoxyethylene (9) lauryl ether], 9.84 µM. As for `CCCCCCCC/C=C/CCCCCCCC(=O)OCCO` [Polyoxyethylene monoleate], the CC50 at 24 h is over 100 µM. On the same count and under the same terms, in the case of `CN1C(CSCC(F)(F)F)Nc2cc(Cl)c(S(N)(=O)=O)cc2S1(=O)=O` (centres unmarked) [Polythiazide] it was over 50 µM; in that of `O=C(O)Cc1nn(Cc2ccc(Br)cc2F)c(=O)c2ccccc12` [Ponalrestat], over 50 µM.

With `Cc1cc(C)c(N=Nc2c(O)c(S(=O)(=O)O)cc3cc(S(=O)(=O)O)ccc23)cc1C` [Ponceau 3R], the CC50 at 24 h was over 6 µM. On to `CC[C@@H]([C@H](C)O)n1ncn(-c2ccc(N3CCN(c4ccc(OC[C@@H]5CO[C@@](Cn6cncn6)(c6ccc(F)cc6F)C5)cc4)CC3)cc2)c1=O` [Posaconazole], for which the CC50 at 24 h came to 26.4 µM. Same read-out and setting: in the case of `O=C1NC(=O)c2ccccc21` [Potassium 1,3-dioxo-1,3-dihydroisoindol-2-ide] it was over 90 µM; in that of `O=C(O)Cc1cccc2ccccc12` [Potassium 1-naphthaleneacetate], over 90 µM.

Staying with this data set, now noted: rat, gh3-tre-luc cells, AC50 (uM) modified / 1000, Tox21_110001=Tox21_111859; viability, 1 nM T3 present, 24 h.
With `O=C1CCCCC1CN1CCCCC1` (centres unmarked) [Pimeclone], the CC50 at 24 h was over 50 µM.

The data set is the same for the next values; noted with them: rat, gh3-tre-luc cells, AC50 (uM) modified / 1000, Tox21_110001=Tox21_200120; viability, 1 nM T3 present, 24 h.
As for `O=Cc1ccc2c(c1)OCO2` [Piperonal], the CC50 at 24 h was over 90 µM.

The data set is the same for the next values; noted with them: rat, gh3-tre-luc cells, AC50 (uM) modified / 1000, Tox21_110001=Tox21_202464; viability, 1 nM T3 present, 24 h.
As to `CC(=O)/C=C/c1ccc2c(c1)OCO2` [Piperonal acetone], the CC50 at 24 h is 57.5 µM.

The data set is the same for the next values; noted with them: rat, gh3-tre-luc cells, AC50 (uM) modified / 1000, Tox21_110001=Tox21_300718; viability, 1 nM T3 present, 24 h.
For `CCN(CC)c1nc(C)cc(OP(=S)(OC)OC)n1` [Pirimiphos-methyl], the CC50 at 24 h was over 90 µM.

Staying with this data set, now noted: rat, gh3-tre-luc cells, AC50 (uM) modified / 1000, Tox21_110001=Tox21_301003; viability, 1 nM T3 present, 24 h.
`Cc1nc(N(C)C)nc(OC(=O)N(C)C)c1C` [Pirimicarb]: the CC50 at 24 h was over 90 µM.

Staying with this data set, now noted: rat, gh3-tre-luc cells, AC50 (uM) modified / 1000, Tox21_110001=Tox21_302658; viability, 1 nM T3 present, 24 h.
`CC(=O)CCc1ccc2c(c1)OCO2` [Piperonyl acetone] gave a CC50 at 24 h of over 90 µM.
